≈ marks a conversion by molar mass, not a printed value. Like-named read-outs stand apart in the source and are kept apart here.
Assays:
[1] = test system: VRE 368; test: Antibacterial screening, broth microdilution MIC; assay type: cell-based, vancomycin-resistant E. faecalis; settings: Enterococcus, read-out: MIC VRE 368
[2] = test system: VRE 725B; test: Antibacterial screening, broth microdilution MIC; assay type: cell-based, vancomycin-resistant E. faecalis; settings: Enterococcus, read-out: MIC VRE 725B
[3] = test system: Enterococcus faecalis ATCC 29212; test: Antibacterial screening, broth microdilution MIC; assay type: cell-based; settings: read-out: MIC E. faecalis
[4] = test system: E. coli ATCC 25922; test: Antibacterial screening, broth microdilution MIC; assay type: cell-based; settings: Escherichia coli, ATCC25922; ATCC 25922, 24 h at 37 °C
[5] = test system: Mycobacterium smegmatis ATCC 700084; test: Antimycobacterial screening, broth dilution MIC; assay type: cell-based; settings: Mycolicibacterium smegmatis, ATCC700084, 72 h; ATCC 700084, 3 days at 37 °C; read-out: MIC M. smegmatis
[6] = test system: Mycobacterium kansasii DSM 44162; test: Antimycobacterial screening, broth dilution MIC; assay type: cell-based; settings: DSM44162, 336 h, read-out: MIC M. kansasii
[7] = Lipophilicity determination by RP-HPLC (log k, log D); assay type: physicochemical; settings: for log D6.5: RP-HPLC C18, MeOH 72 % / acetate-buffered saline pH 6.5; for log D7.4: RP-HPLC C18, MeOH 72 % / acetate-buffered saline pH 7.4; for log k (logarithm of the capacity factor): RP-HPLC C18, MeOH 72 % / water 28 %
Source text: An HPLC system Agilent 1200 equipped with a DAD detector (Agilent, Santa Clara, CA, USA) was used. A chromatographic column Symmetry® C18 5 μm, 4.6×250 mm, part No. WAT054275 (Waters Corp., Milford, MA, USA) was used. The HPLC separation process was monitored and evaluated with EZChrom Elite software ver. 3.3.2 (Agilent). Isocratic elution by a mixture of MeOH p.a. (72 %) and H2O-HPLC Mili-Q grade (28 %) as a mobile phase was used for the determination of capacity factor k. Isocratic elution by a mixture of MeOH p.a. (72 %) and acetate-buffered saline (pH 7.4 and pH 6.5) (28 %) as a mobile phase was used for the determination of distribution coefficients expressed as D7.4 and D6.5. The total flow of the column was 1.0 mL min^-1, the injection volume was 20 μL, the column temperature was 40 °C, and the sample temperature was 10 °C. The detection wavelength of 210 nm was chosen. A KI methanolic solution was used to determine the dead times (tD). Retention times (tR) were measured in minutes. The capacity factors k were calculated according to the formula k = (tR–tD)/tD, where tR is the retention time of the solute, and tD is the dead time obtained using an unretained analyte. The distribution coefficients DpH were calculated according to the formula DpH = (tR–tD)/tD. Each experiment was repeated three times.
The capacity factor and distribution coefficients were measured by RP-HPLC on a C18 column with methanol as an organic modifier of the mobile phase. In addition to the experimental lipophilicities, predicted log P values were also calculated using ACD/Percepta, see Table 1. […] The values of σ(Ar) are found in a wide range from 0.01 to 1.36, so the compounds contain substituents with both electron-donating and slightly electron-withdrawing properties.

[8] = test system: MRSA SA 630; test: Antibacterial screening, broth microdilution MIC; assay type: cell-based, methicillin-resistant S. aureus; settings: Staphylococcus aureus, clinical isolate, 24 h at 37 °C, read-out: MIC MRSA SA 630
[9] = test system: MRSA 63718; test: Antibacterial screening, broth microdilution MIC; assay type: cell-based, methicillin-resistant S. aureus; settings: Staphylococcus aureus, clinical isolate, 24 h at 37 °C, read-out: MIC MRSA 63718
[10] = test system: VRE 342B; test: Antibacterial screening, broth microdilution MIC; assay type: cell-based, vancomycin-resistant E. faecalis; settings: Enterococcus, read-out: MIC VRE 342B
[11] = test system: MRSA SA 3202; test: Antibacterial screening, broth microdilution MIC; assay type: cell-based, methicillin-resistant S. aureus; settings: Staphylococcus aureus, clinical isolate, 24 h at 37 °C, read-out: MIC MRSA SA 3202
[12] = test system: S. aureus ATCC 29213; test: Antibacterial screening, broth microdilution MIC; assay type: cell-based; settings: Staphylococcus aureus, ATCC29213; ATCC 29213, 24 h at 37 °C; read-out: MIC S. aureus
[13] = test system: Mycobacterium tuberculosis ATCC 25177/H37Ra; test: Antimycobacterial screening, broth dilution MIC (Alamar blue); assay type: cell-based; settings: 336 h, H37Ra, 14 days at 37 °C, Alamar blue, read-out: MIC M. tuberculosis
Procedure: The evaluation of in vitro antimycobacterial activity of the compounds was performed against Mycobacterium tuberculosis ATCC 25177/H37Ra, Mycobacterium kansasii DSM 44162 and Mycobacterium smegmatis ATCC 700084.
The broth dilution micro-method in Middlebrook 7H9 medium (Difco, Lawrence, KS, USA) supplemented with ADC Enrichment (Difco) was used to determine the minimum inhibitory concentration (MIC) as previously described. […] The final concentrations of the evaluated compounds, ranging from 256 to 0.125 μg mL^-1, were obtained by twofold serial dilution of the stock solution in a microtiter plate with a sterile medium. Bacterial inocula were prepared by transferring colonies from culture to sterile water. The plate was inoculated by tested microorganisms. The final concentration of bacterial cells was 1.5×10^6 for M. tuberculosis and 10^5 cells in a microtiter plate for other mycobacteria. Isoniazid and rifampicin (Sigma) were used as reference antimycobacterial drugs. Drug-free controls, sterility controls, and controls consisting of medium and DMSO alone were included. The plates were incubated for a defined time at an appropriate temperature (3 days at 37 °C for M. smegmatis, and 14 days at 37 °C for M. tuberculosis and M. kansasii). […] The MICs against M. tuberculosis were evaluated by Alamar blue (Oxoid). After incubation, 10 % of Alamar blue was added to each well, and the plate was incubated for 24 h. The MIC values were assessed as the lowest concentration of the tested compounds, which prevented changing blue resazurin to pink resorufin. The experiments were repeated three times. The minimum inhibitory concentrations (MICs) were defined as the lowest concentration of the compound at which no visible bacterial growth was observed. The MIC value is routinely and widely used in bacterial assays and is a standard detection limit according to the CLSI [60].

[14] = ATCC29212, ATCC 29212, 24 h at 37 °C

Compound | MIC ([1]; vanA isolate, 24 h at 37 °C) [µM] | MIC ([2]; vanA isolate, 24 h at 37 °C) [µM] | MIC [3, 14] [µM] | MIC [4] [µM] | MIC [5] [µM] | MIC ([6]; DSM 44162, 14 days at 37 °C) [µM] | log D6.5 [7] | log D7.4 [7] | log k (logarithm of the capacity factor) [7] | MIC [8] [µM] | MIC [9] [µM] | MIC ([10]; vanA isolate, 24 h at 37 °C) [µM] | MIC [11] [µM] | MIC [12] [µM] | MIC [13] [µM] | MIC ([1]; 24 h) [µM] | MIC ([2]; 24 h) [µM] | MIC ([3]; ATCC29212, 24 h) [µM] | MIC [6] [µM] | MIC ([10]; 24 h) [µM]
COc1ccc(OC)c(NC(=O)c2c(O)ccc3ccccc23)c1 [Compound 5, N-(2,5-Dimethoxyphenyl)-2-hydroxynaphthalene-1-carboxamide] | 792 (≈ 256 µg/mL) | 792 (≈ 256 µg/mL) | 792 (≈ 256 µg/mL) | 792 (≈ 256 µg/mL) | 792 (≈ 256 µg/mL) | 792 (≈ 256 µg/mL) | 0.3263 | 0.3310 | 0.3353 | 792 (≈ 256 µg/mL) | 792 (≈ 256 µg/mL) | 792 (≈ 256 µg/mL) | 792 (≈ 256 µg/mL) | 792 (≈ 256 µg/mL) | 396 (≈ 128 µg/mL) | – | – | – | – | –
Cc1ccc(C)c(NC(=O)c2c(O)ccc3ccccc23)c1 [Compound 11, N-(2,5-Dimethylphenyl)-2-hydroxynaphthalene-1-carboxamide] | 879 (≈ 256 µg/mL) | 879 (≈ 256 µg/mL) | 879 (≈ 256 µg/mL) | 879 (≈ 256 µg/mL) | 220 (≈ 64.1 µg/mL) | 110 (≈ 32 µg/mL) | 0.2455 | 0.2514 | 0.2486 | 110 (≈ 32 µg/mL) | 110 (≈ 32 µg/mL) | 879 (≈ 256 µg/mL) | 110 (≈ 32 µg/mL) | 110 (≈ 32 µg/mL) | 439 (≈ 128 µg/mL) | – | – | – | – | –
COc1cccc(NC(=O)c2c(O)ccc3ccccc23)c1 [Compound 3, 2-hydroxy-N-(3-methoxyphenyl)naphthalene-1-carboxamide] | > 873 | > 873 | > 873 | 873 (≈ 256 µg/mL) | – | 109 (≈ 32 µg/mL) | 0.1643 | 0.1717 | 0.1751 | 873 (≈ 256 µg/mL) | 436 (≈ 128 µg/mL) | > 873 | – | 436 (≈ 128 µg/mL) | 218 (≈ 63.9 µg/mL) | – | – | – | – | –
CO[C@H]1/C=C/O[C@@]2(C)Oc3c(C)c(O)c4c(O)c(c(/C=N/N5CCN(C)CC5)c(O)c4c3C2=O)NC(=O)/C(C)=C\C=C\[C@H](C)[C@H](O)[C@@H](C)[C@@H](O)[C@@H](C)[C@H](OC(C)=O)[C@@H]1C [RIF, rifampicin, reference compound] | – | – | – | – | 19.4 (≈ 16 µg/mL) | 0.15 (≈ 0.123 µg/mL) | – | – | – | – | – | – | – | – | 9.71 (≈ 7.99 µg/mL) | – | – | – | – | –
Cc1cccc(NC(=O)c2c(O)ccc3ccccc23)c1 [Compound 9, 2-hydroxy-N-(3--methylphenyl)naphthalene-1-carboxamide] | 462 (≈ 128 µg/mL) | 462 (≈ 128 µg/mL) | 462 (≈ 128 µg/mL) | 462 (≈ 128 µg/mL) | – | 115 (≈ 31.9 µg/mL) | 0.1644 | 0.1727 | 0.1762 | – | 462 (≈ 128 µg/mL) | 462 (≈ 128 µg/mL) | – | – | 231 (≈ 64.1 µg/mL) | – | – | – | – | –
Cc1ccc(NC(=O)c2c(O)ccc3ccccc23)cc1 [Compound 10, 2-hydroxy-N-(4-methylphenyl)naphthalene-1-carboxamide] | 462 (≈ 128 µg/mL) | 462 (≈ 128 µg/mL) | 462 (≈ 128 µg/mL) | 462 (≈ 128 µg/mL) | > 923 | 115 (≈ 31.9 µg/mL) | 0.1553 | 0.1632 | 0.1658 | 462 (≈ 128 µg/mL) | 462 (≈ 128 µg/mL) | 462 (≈ 128 µg/mL) | 462 (≈ 128 µg/mL) | – | 231 (≈ 64.1 µg/mL) | – | – | – | – | –
COc1ccccc1NC(=O)c1c(O)ccc2ccccc12 [Compound 2, 2-hydroxy-N-(2-methoxyphenyl)naphthalene-1-carboxamide] | – | – | – | 873 (≈ 256 µg/mL) | – | – | 0.3015 | 0.3069 | 0.3181 | – | – | – | – | – | > 873 | > 873 | > 873 | > 873 | > 873 | > 873
NNC(=O)c1ccncc1 [INH, isoniazid, reference compound] | – | – | – | – | 117 (≈ 16 µg/mL) | 233 (≈ 32 µg/mL) | – | – | – | – | – | – | – | – | 36.5 (≈ 5.01 µg/mL) | – | – | – | – | –
CC1(C)S[C@@H]2[C@H](NC(=O)[C@H](N)c3ccccc3)C(=O)N2[C@H]1C(=O)O [AMP, ampicillin, reference compound] | – | – | 2.81 (≈ 0.982 µg/mL) | 45.8 (≈ 16 µg/mL) | – | – | – | – | – | 45.8 (≈ 16 µg/mL) | 45.8 (≈ 16 µg/mL) | – | 45.8 (≈ 16 µg/mL) | 5.72 (≈ 2 µg/mL) | – | – | – | – | – | –
